US7186354B2, “Anticorrosive treating concentrate” (NEC Electronics Corporation, priority 2000, dated 2007)

Test: solubility of BTA in water (FIG. 1)
Format: physicochemical

solubility of BTA in water (10° C.): about 1%
solubility of BTA in water (20° C.): about 1.9%
solubility of BTA in water (30° C.): about 4%
solubility of BTA in water (80° C.): about 8%
solubility in water (water of 20° C.): about 1.9 wt-%
Structure (SMILES): c1ccc2[nH]nnc2c1 [BTA, benzotriazole]
